In ChEMBL document CHEMBL1201862, “PubChem BioAssay data set” (2004):
Active and inactive are the calls of the source. Rule as the data show it: actives have a measured IC50 and inactives only a lower limit.

Target: Envelope glycoprotein gp160 (Human immunodeficiency virus 1, UniProt Q6QLK5)
Assay: inhibitors of HIV fusion peptide binding, primary screen, biochemical, uHTS, fluorescence dequenching (AID 1986)

Chain of Envelope glycoprotein gp160 (Q6QLK5 whole entry, the tested form may be a part): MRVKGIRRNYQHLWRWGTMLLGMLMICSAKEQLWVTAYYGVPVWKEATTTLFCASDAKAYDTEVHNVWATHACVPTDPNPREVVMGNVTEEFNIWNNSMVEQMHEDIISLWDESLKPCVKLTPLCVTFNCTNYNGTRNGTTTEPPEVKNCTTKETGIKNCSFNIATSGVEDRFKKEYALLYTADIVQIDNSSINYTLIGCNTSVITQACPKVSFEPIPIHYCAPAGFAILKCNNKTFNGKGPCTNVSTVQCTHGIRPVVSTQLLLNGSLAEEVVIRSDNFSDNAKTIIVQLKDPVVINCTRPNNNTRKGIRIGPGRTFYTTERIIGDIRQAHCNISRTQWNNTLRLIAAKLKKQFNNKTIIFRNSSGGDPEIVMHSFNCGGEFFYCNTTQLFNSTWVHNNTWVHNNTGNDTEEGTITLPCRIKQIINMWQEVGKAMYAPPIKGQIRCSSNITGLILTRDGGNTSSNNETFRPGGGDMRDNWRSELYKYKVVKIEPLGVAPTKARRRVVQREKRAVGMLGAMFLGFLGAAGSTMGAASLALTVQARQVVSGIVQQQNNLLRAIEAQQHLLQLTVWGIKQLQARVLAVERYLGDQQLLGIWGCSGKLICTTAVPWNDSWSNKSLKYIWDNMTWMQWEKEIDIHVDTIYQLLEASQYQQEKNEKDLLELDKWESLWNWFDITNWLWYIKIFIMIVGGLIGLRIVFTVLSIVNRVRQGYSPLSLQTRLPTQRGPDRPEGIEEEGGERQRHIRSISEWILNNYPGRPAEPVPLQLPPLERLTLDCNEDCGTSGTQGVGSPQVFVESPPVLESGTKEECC

O=C(N/N=C/c1ccc(-c2ccc(S(=O)(=O)Nc3ncccn3)cc2)o1)c1cc2ccccc2cc1O
IC50: 5.36 µM (active)
